Data: patent US20150152064A1, “METHODS AND COMPOSITIONS OF TREATING A FLAVIVIRIDAE FAMILY VIRAL INFECTION” (The Board of Trustees of the Leland Stanford Junior …, priority 2007, published 2015)

Experiment: in vitro
Format: cell-based
Details: human, huh-7.5 cells
Method: Luciferase assays are performed at about 48 hr to about 72 hr or 96 hr.
After a 5-30 min recovery at about 25° C., pulsed cells are diluted into 2-25 ml of prewarmed growth medium. […] Untreated cells are used as a negative control for water soluble compounds. […] Medium is changed daily.
Following about 48, about 72, or about 96 hrs of treatment, cells are incubated for 1-5 hrs at about 37° C. in the presence of 1-20% Alamar Blue reagent (TREK Diagnostic Systems).

SMILES: Cc1ccc(Cn2ncc3ccccc32)cc1 [Compound 185]
- viability at 5 µM: ≥ 90%
- viability at 10 µM: ≥ 90%
